Results on one compound are retold here after patent US20210040428A1, “MICROFLUIDIC DEVICE AND METHOD FOR DETERMINING CELL ELECTRICAL BARRIER PROPERTIES” (University of Southampton, priority 2018, published 2021).

The subject of the test is differentiated culture of primary bronchial human cells. Briefly: Barrier disruption at the air-liquid interface: epithelial barrier resistance Rc by impedance spectroscopy before and after EGTA stimulation. The format is cell-based. The following applies: paired t-test. As for the experimental part: Impedance spectra were measured before and after EGTA stimulation either submerged or at the air-liquid interface. The extrapolated values of the equivalent resistance Rc were compared with TER values.
FIG. 17 is a bar chart of fitted resistance values, Rc, showing the disruption induced by the EGTA stimulation.
Electrical impedance spectroscopy (EIS) measurements were performed using the two electrodes configuration of an Alpha-A impedance analyser (Novocontrol Technologies, Germany). A frequency sweep was performed between 100 Hz and 100 kHz, with an applied voltage of 0.05 V(rms). Prior to the EIS measurement, the medium in the apical compartment was replaced with different volumes (200 μl, 50 μl, 20 μl, 10 μl) of fresh medium at room-temperature. Each Transwell® support was placed on top of the planar electrodes only for the duration of the measurement (≈30 s). Trans-epithelial electrical resistance (TER) measurements were performed using chopstick electrodes connected to an EVOM2 Epithelial Volt-ohm-meter (World Precision Instruments).
A custom script was developed in Matlab (© 2015 The MathWorks) to fit the complex electrical impedance data with the equivalent electric circuit model. The objective function to be minimized during the fitting was defined as: […]
The absolute value of the impedance was used as the normalizing factor. […]

Each structure is given as a SMILES string.

In the case of `O=C(O)CN(CCOCCOCCN(CC(=O)O)CC(=O)O)CC(=O)O` [EGTA, ethylene glycol-bis(β-aminoethyl ether)-N,N,N′,N′-tetraacetic acid], the “fitted resistance Rc of the epithelial barrier, change after stimulation compared to the control” value (air-liquid interface measurement) was “statistically significant (paired t-test) drop” and the “fitted resistance Rc of the epithelial barrier, change after stimulation compared to the control” value (submerged measurement) is recorded as “statistically significant (paired t-test) drop”.
